# Data: PubChem BioAssay AID1259407 (Chemical Carcinogenesis Research Information System (CCRIS), 2018)
# Activity calls are given as the source filed them. How the calls were made is not given here.
# Test system: CCRIS mutagenicity, Ames/micronucleus/aberration tests
# Test: CCRIS mutagenicity studies
# [1] = Test System: AMES SALMONELLA TYPHIMURIUM, Strain/Indicator: TA98, Metabolic Activation: NONE, Method: PREINCUBATION
# [2] = Test System: AMES SALMONELLA TYPHIMURIUM, Strain/Indicator: TA100, Metabolic Activation: NONE, Method: PREINCUBATION
# [3] = Test System: AMES SALMONELLA TYPHIMURIUM, Strain/Indicator: TA1535, Metabolic Activation: NONE, Method: PREINCUBATION
# [4] = Test System: AMES SALMONELLA TYPHIMURIUM, Strain/Indicator: TA100, Metabolic Activation: NONE, Method: STANDARD PLATE
compound,measurement,setting,value
CCCCCCCCCCCCO,mutagenic call,[1],inactive; negative
same,mutagenic call,"Test System: AMES SALMONELLA TYPHIMURIUM, Strain/Indicator: TA98, Metabolic Activation: RAT, LIVER, S-9, KC 500, Method: PREINCUBATION",inactive; negative
same,mutagenic call,[2],inactive; negative
same,mutagenic call,"Test System: AMES SALMONELLA TYPHIMURIUM, Strain/Indicator: TA100, Metabolic Activation: RAT, LIVER, S-9, KC 500, Method: PREINCUBATION",inactive; negative
same,mutagenic call,[3],inactive; negative
same,mutagenic call,"Test System: AMES SALMONELLA TYPHIMURIUM, Strain/Indicator: TA1535, Metabolic Activation: RAT, LIVER, S-9, KC 500, Method: PREINCUBATION",inactive; negative
same,mutagenic call,"Test System: AMES SALMONELLA TYPHIMURIUM, Strain/Indicator: TA1537, Metabolic Activation: NONE, Method: PREINCUBATION",inactive; negative
same,mutagenic call,"Test System: AMES SALMONELLA TYPHIMURIUM, Strain/Indicator: TA1537, Metabolic Activation: RAT, LIVER, S-9, KC 500, Method: PREINCUBATION",inactive; negative
same,mutagenic call,"Test System: AMES SALMONELLA TYPHIMURIUM, Strain/Indicator: TA1538, Metabolic Activation: NONE, Method: PREINCUBATION",inactive; negative
same,mutagenic call,"Test System: AMES SALMONELLA TYPHIMURIUM, Strain/Indicator: TA1538, Metabolic Activation: RAT, LIVER, S-9, KC 500, Method: PREINCUBATION",inactive; negative
same,mutagenic call,"Test System: E. COLI, Strain/Indicator: WP2 UVRA, Metabolic Activation: NONE, Method: PREINCUBATION",inactive; negative
same,mutagenic call,"Test System: E. COLI, Strain/Indicator: WP2 UVRA, Metabolic Activation: RAT, LIVER, S-9, KC 500, Method: PREINCUBATION",inactive; negative
O=[N+]([O-])NC1=NCCN1Cc1ccc(Cl)nc1,mutagenic call,"End Point: In vitro micronucleus, Test System: Human lymphocytes, Metabolic Activation: None",inactive; negative
same,mutagenic call,"End Point: In vitro micronucleus, Test System: Human peripheral blood lymphocytes, Metabolic Activation: None",inactive; negative
same,mutagenic call,"End Point: In vitro micronucleus, Test System: Human peripheral blood lymphocytes, Metabolic Activation: Rat, Liver, S-9 (10%)",active; positive (at highest dose only)
same,mutagenic call,"End Point: In vivo chromosomal aberrations, Test System: Bone marrow polychromatic erythrocytes, Species: Rat, Strain/Sex: Wistar, Route: Oral",active; positive (structural changes)
same,mutagenic call,"End Point: In vivo micronucleus, Test System: Bone marrow polychromatic erythrocytes, Species: Rat, Strain/Sex: Wistar/Male, Route: Oral",active; positive (at high dose)
same,mutagenic call,"End Point: In vivo micronucleus, Test System: Bone marrow polychromatic erythrocytes, Species: Rat, Strain/Sex: Wistar, Route: Oral",active; positive
same,mutagenic call,"Test System: Ames Salmonella typhimurium, Strain/Indicator: TA98, Metabolic Activation: None, Method: Preincubation",active; positive
same,mutagenic call,"Test System: Ames Salmonella typhimurium, Strain/Indicator: TA98, Metabolic Activation: Rat, Liver, S-9 (10%), Aroclor 1254, Method: Preincubation",active; positive
same,mutagenic call,"Test System: Ames Salmonella typhimurium, Strain/Indicator: TA100, Metabolic Activation: None, Method: Preincubation",inactive; negative
same,mutagenic call,"Test System: Ames Salmonella typhimurium, Strain/Indicator: TA100, Metabolic Activation: Rat, Liver, S-9 (10%), Aroclor 1254, Method: Preincubation",inactive; negative
CCN(CC)c1ccc(N=Nc2c(Cl)cc([N+](=O)[O-])cc2Cl)cc1,mutagenic call,"Test System: AMES SALMONELLA TYPHIMURIUM, Strain/Indicator: TA98, Metabolic Activation: NONE, Method: STANDARD PLATE",active; positive
same,mutagenic call,"Test System: AMES SALMONELLA TYPHIMURIUM, Strain/Indicator: TA98, Metabolic Activation: RAT, LIVER, S-9, AROCLOR 1254, Method: STANDARD PLATE",active; positive
same,mutagenic call,[4],inactive; negative
same,mutagenic call,"Test System: AMES SALMONELLA TYPHIMURIUM, Strain/Indicator: TA100, Metabolic Activation: RAT, LIVER, S-9, AROCLOR 1254, Method: STANDARD PLATE",inactive; negative
same,mutagenic call,"Test System: AMES SALMONELLA TYPHIMURIUM, Strain/Indicator: TA1535, Metabolic Activation: NONE, Method: STANDARD PLATE",inactive; negative
same,mutagenic call,"Test System: AMES SALMONELLA TYPHIMURIUM, Strain/Indicator: TA1535, Metabolic Activation: RAT, LIVER, S-9, AROCLOR 1254, Method: STANDARD PLATE",inactive; negative
same,mutagenic call,"Test System: AMES SALMONELLA TYPHIMURIUM, Strain/Indicator: TA1537, Metabolic Activation: NONE, Method: STANDARD PLATE",inactive; negative
same,mutagenic call,"Test System: AMES SALMONELLA TYPHIMURIUM, Strain/Indicator: TA1537, Metabolic Activation: RAT, LIVER, S-9, AROCLOR 1254, Method: STANDARD PLATE",inactive; negative
same,mutagenic call,"Test System: CHINESE HAMSTER OVARY, Strain/Indicator: CHO (HGPRT)/6-THIOGUANINE, Metabolic Activation: NONE",inactive; negative
same,mutagenic call,"Test System: CHINESE HAMSTER OVARY, Strain/Indicator: CHO (HGPRT)/6-THIOGUANINE, Metabolic Activation: RAT, LIVER, S-9, AROCLOR 1254",inactive; negative
same,mutagenic call,"Test System: UDS RAT HEPATOCYTES, Strain/Indicator: THY INCORP, Metabolic Activation: NONE, Method: AUTORADIOGRAPHY",inactive; negative
CC(C)(C)NC(=O)C=Cc1ccc([N+](=O)[O-])o1,mutagenic call,[1],active; positive
N[C@@H](CS/C=C/CCl)C(=O)O,mutagenic call,[1],inactive; negative
same,mutagenic call,[2],inactive; negative
same,mutagenic call,"Test System: AMES SALMONELLA TYPHIMURIUM, Strain/Indicator: TA2638, Metabolic Activation: NONE, Method: PREINCUBATION",inactive; negative
Cc1cc(=O)oc2ccc3c(c12)C1(C)OOC1(C)O3 (stereo unspecified),mutagenic call,[2],active; positive
CC1C=CC(=O)O1 (stereo unspecified),mutagenic call,[1],inactive; negative
same,mutagenic call,"Test System: AMES SALMONELLA TYPHIMURIUM, Strain/Indicator: TA98, Metabolic Activation: RAT, LIVER, S-9, AROCLOR 1254, Method: PREINCUBATION",inactive; negative
same,mutagenic call,[2],inactive; negative
same,mutagenic call,"Test System: AMES SALMONELLA TYPHIMURIUM, Strain/Indicator: TA100, Metabolic Activation: RAT, LIVER, S-9, AROCLOR 1254, Method: PREINCUBATION",inactive; negative
same,mutagenic call,"Test System: AMES SALMONELLA TYPHIMURIUM, Strain/Indicator: TA102, Metabolic Activation: NONE, Method: PREINCUBATION",inactive; negative
same,mutagenic call,"Test System: AMES SALMONELLA TYPHIMURIUM, Strain/Indicator: TA102, Metabolic Activation: RAT, LIVER, S-9, AROCLOR 1254, Method: PREINCUBATION",inactive; negative
CCOP(=O)(NC(C)C)Oc1ccc(SC)c(C)c1 (stereo unspecified),mutagenic call,"Test System: AMES SALMONELLA TYPHIMURIUM, Strain/Indicator: TA97, Metabolic Activation: HAMSTER, LIVER, S-9, AROCLOR 1254 (10%), Method: PREINCUBATION",inactive; negative
same,mutagenic call,"Test System: AMES SALMONELLA TYPHIMURIUM, Strain/Indicator: TA97, Metabolic Activation: HAMSTER, LIVER, S-9, AROCLOR 1254 (30%), Method: PREINCUBATION",inactive; negative
same,mutagenic call,"Test System: AMES SALMONELLA TYPHIMURIUM, Strain/Indicator: TA97, Metabolic Activation: NONE, Method: PREINCUBATION",inactive; negative
same,mutagenic call,"Test System: AMES SALMONELLA TYPHIMURIUM, Strain/Indicator: TA97, Metabolic Activation: RAT, LIVER, S-9, AROCLOR 1254 (10 OR 30%), Method: PREINCUBATION",inactive; negative
same,mutagenic call,"Test System: AMES SALMONELLA TYPHIMURIUM, Strain/Indicator: TA98, Metabolic Activation: HAMSTER, LIVER, S-9, AROCLOR 1254 (10%), Method: PREINCUBATION",inactive; negative
same,mutagenic call,"Test System: AMES SALMONELLA TYPHIMURIUM, Strain/Indicator: TA98, Metabolic Activation: HAMSTER, LIVER, S-9, AROCLOR 1254 (30%), Method: PREINCUBATION",inactive; negative
same,mutagenic call,[1],inactive; negative
same,mutagenic call,"Test System: AMES SALMONELLA TYPHIMURIUM, Strain/Indicator: TA98, Metabolic Activation: RAT, LIVER, S-9, AROCLOR 1254 (10 OR 30%), Method: PREINCUBATION",inactive; negative
same,mutagenic call,"Test System: AMES SALMONELLA TYPHIMURIUM, Strain/Indicator: TA100, Metabolic Activation: HAMSTER, LIVER, S-9, AROCLOR 1254 (10%), Method: PREINCUBATION",inactive; negative
same,mutagenic call,"Test System: AMES SALMONELLA TYPHIMURIUM, Strain/Indicator: TA100, Metabolic Activation: HAMSTER, LIVER, S-9, AROCLOR 1254 (30%), Method: PREINCUBATION",inactive; negative
same,mutagenic call,[2],inactive; negative
same,mutagenic call,"Test System: AMES SALMONELLA TYPHIMURIUM, Strain/Indicator: TA100, Metabolic Activation: RAT, LIVER, S-9, AROCLOR 1254 (10 OR 30%), Method: PREINCUBATION",inactive; negative
same,mutagenic call,"Test System: AMES SALMONELLA TYPHIMURIUM, Strain/Indicator: TA1535, Metabolic Activation: HAMSTER, LIVER, S-9, AROCLOR 1254 (10%), Method: PREINCUBATION",inactive; negative
same,mutagenic call,"Test System: AMES SALMONELLA TYPHIMURIUM, Strain/Indicator: TA1535, Metabolic Activation: HAMSTER, LIVER, S-9, AROCLOR 1254 (30%), Method: PREINCUBATION",inactive; negative
same,mutagenic call,[3],inactive; negative
same,mutagenic call,"Test System: AMES SALMONELLA TYPHIMURIUM, Strain/Indicator: TA1535, Metabolic Activation: RAT, LIVER, S-9, AROCLOR 1254 (10 OR 30%), Method: PREINCUBATION",inactive; negative
FC(F)(F)c1ccccc1CN1C2c3ccccc3-c3ccccc3C21 (stereo unspecified),mutagenic call,[4],active; positive
